{"source": "paper PMC9865752", "about": "“Design and Synthesis of (Z)-2-(Benzylamino)-5-benzylidenethiazol-4(5H)-one Derivatives as Tyrosinase Inhibitors and Their Anti-Melanogenic and Antioxidant Effects” (Molecules, 2023)", "key": {"[1]": {"test": "ABTS radical scavenging assay", "conditions": "test samples 100 µM; 2 min in the dark", "experimental": "An antioxidant assay using ABTS is also commonly used to assess the antioxidant activities of compounds. Donation of one electron from ABTS to potassium persulfate generates the ABTS radical cation. An ABTS radical scavenging activity assay was performed using 100 µM of BABT derivatives or Trolox (a positive reference control) by mixing test samples with ABTS radical cations obtained from a reaction of potassium persulfate and ABTS. ABTS radical scavenging activity was assessed by measuring the optical density at 734 nm after leaving the test sample–ABTS radical cation mixture in the dark for 2 min.\nAccording to a previously described method, with minor modifications, the ABTS radical scavenging activities of BABT derivatives 1–14 were assessed. Briefly, an ABTS radical solution was prepared by mixing 10 mL of aqueous ABTS solution (7 mM) with 10 mL of potassium persulfate aqueous solution (2.45 mM), and the mixture was kept for 11–15 h in the dark at room temperature until the absorbance remained constant. Prior to the antioxidant assay experiments, the ABTS radical solution was diluted with water to adjust the absorbance at 734 nm to 0.70 ± 0.02. A 10 µL aliquot of BABT derivatives or Trolox at a concentration of 1000 µM was added to 90 µL of ABTS+ free radical solution in each well of a 96-well plate and incubated for 2 min in the dark at ambient temperature. The absorbance of each well was measured at 734 nm using a microplate reader (VersaMax; Molecular Devices). The ABTS+ radical scavenging activities of BABT derivatives were compared to those of Trolox. All experiments were carried out independently, thrice."}, "[2]": {"test": "DPPH radical scavenging assay", "conditions": "test samples 500 µM; DPPH 0.18 mM; 30 min in the dark", "experimental": "DPPH is a light-sensitive compound containing free radicals. The DPPH assay is one of the most common methods for evaluating the antioxidant activity of a compound. The effects of BABT derivatives on DPPH radical scavenging activities were evaluated using L-ascorbic acid as a positive reference control. DPPH radical scavenging activities were measured after leaving the mixed samples (test samples of 500 µM plus DPPH solution of 0.18 mM) in the dark for 30 min. To determine the radical scavenging activities, the absorbance of the mixed samples was measured at 517 nm.\nAccording to previously described methods, with minor modifications, the DPPH radical scavenging activities of BABT derivatives 1–14 were measured. A DPPH (0.2 mM) and methanol solution (180 µL) was mixed with 20 µL of a DMSO solution containing 5 mM BABT derivative, or with 20 µL of an aqueous solution of 5 mM L-ascorbic acid, in each well of a 96-well plate and kept at ambient temperature in the dark for 30 min. The optical density of each well was measured at 517 nm using a microplate reader (VersaMax; Molecular Devices). L-Ascorbic acid was used as a positive reference control, and the DPPH radical scavenging abilities of BABT derivatives were compared with those of L-ascorbic acid. All experiments were performed independently, thrice."}, "B16F10 cells [3]": {"test_system": "B16F10 cells", "test": "Cell viability (EZ-Cytox assay)", "type": "cell-based, murine", "conditions": "0, 1, 2, 5, 10, 20 µM, 72 h", "experimental": "Before these experiments were performed, the influence of these derivatives on cytotoxicity in B16F10 cells was examined to determine their optimal concentration range for B16F10 cell experiments. The cytotoxicity of derivatives 7 and 8 at six concentrations (0, 1, 2, 5, 10, and 20 µM) was assessed using the EZ-Cytox assay.\nCytotoxicity assays in B16F10 cells were performed using the EZ-Cytox solution (EZ-3000, DoGenBio, Seoul, Republic of Korea). Briefly, B16F10 cells were seeded at a density of 1 × 10^4 cells per well and cultured at 37 °C in a 5% CO2 atmosphere for 24 h. […] Then, the EZ-Cytox solution (10 μL aliquot) was added to each well. After 2 h of incubation at 37 °C, the optical density of each well was measured at 450 nm using a microplate reader (VersaMax; Molecular Devices)."}, "B16F10 cells [4]": {"test_system": "B16F10 cells", "test": "Measurement of extracellular and intracellular melanin levels", "type": "cell-based, murine", "conditions": "α-MSH plus IBMX stimulated B16F10 cells, 72 h", "experimental": "To investigate the effects of derivative 8 on extracellular and intracellular melanin levels in B16F10 cells, the cells were treated with various concentrations (5, 10, and 20 µM) of derivative 8 for 1 h, in addition to co-treatment with α-MSH (0.5 µM) and 3-isobutyl-1-methylxanthine (IBMX; 200 µM) to enhance melanin biosynthesis in B16F10 cells. After 72 h of incubation, the effects of 8 on extracellular and intracellular melanin levels were determined by measuring the melanin absorbance in the culture media and cell lysates, respectively, at 405 nm using a microplate reader.\nThe effect of 8 on melanin production was measured using a standard melanin content assay, with minor modifications. Briefly, B16F10 cells were seeded at a density of 1 × 10^5 cells per well and allowed to adhere to the well bottoms for 24 h under the conditions used for cell cultures. […] After incubation for 72 h at 37 °C in a 5% CO2 atmosphere, melanin levels were determined. To measure the extracellular melanin levels, the absorbance of each well of the culture medium was measured at 405 nm. […] Cultured cells were washed twice with PBS, and the pellets obtained were dissolved using 1 N NaOH solution (200 µL, 10% DMSO) at 60 °C for 1 h. Cell lysates were transferred to the wells of a 96-well plate, and the optical density of melanin dissolved in each well was measured at 405 nm in aqueous DMSO solution using a microplate reader (VersaMax; Molecular Devices)."}}, "data": [{"compound": "O=C1N=C(NCc2ccccc2)S/C1=C\\c1ccc(O)cc1O", "note": "[Compound 8, (Z)-2-(benzylamino)-5-(2,4-dihydroxybenzylidene)thiazol-4(5H)-one]", "values": [{"measurement": "ABTS radical scavenging activity, % inhibition", "setting": "[1]", "value": 96, "unit": "%"}, {"measurement": "DPPH radical scavenging activity, % inhibition", "setting": "[2]", "value": 76, "unit": "%"}, {"measurement": "cytotoxicity", "setting": "B16F10 cells [3]", "value": "no cytotoxicity until 72 h at all tested concentrations"}, {"measurement": "extracellular melanin levels compared to untreated control", "setting": "B16F10 cells [4]; 5 µM", "value": 1.22, "unit": "fold"}, {"measurement": "intracellular melanin levels (in words)", "setting": "B16F10 cells [4]; 5 µM", "value": "more potent inhibitory activity on melanin production than kojic acid at 20 µM"}, {"measurement": "extracellular melanin levels compared to untreated control", "setting": "B16F10 cells [4]; 10 µM", "value": 1.03, "unit": "fold"}, {"measurement": "extracellular melanin levels compared to untreated control", "setting": "B16F10 cells [4]; 20 µM", "value": 1.00, "unit": "fold"}, {"measurement": "intracellular melanin levels (in words)", "setting": "B16F10 cells [4]; 20 µM", "value": "lower than those in the untreated control"}]}]}
